Source: US20080167314A1, “Condensed Imidazole Compound And Use Thereof” (priority 2004, published 2008)

| Compound | melting point |
| --- | --- |
| Cc1cc(-c2nc3cccnn3c2-c2ccnc(NC(=O)NC3CCOCC3)c2)ccc1F [Example 51-15, N-{4-[2-(4-fluoro-3-methylphenyl)imidazo[1,2-b]pyridazin-3-yl]pyridin-2-yl}-N′-(tetrahydro-2H-pyran-4-yl)urea] | 240 to 241 °C |
| Cc1cccc(-c2nc3cccnn3c2-c2ccnc(NC(=O)NC3CCOCC3)c2)c1 [Example 52, N-{4-[2-(3-Methylphenyl)imidazo[1,2-b]pyridazin-3-yl]pyridin-2-yl}-N′-(tetrahydro-2H-pyran-4-yl)urea] | 222 °C |
| COc1ccc2nc(-c3ccc(F)c(C)c3)c(-c3ccnc(NC(=O)NC(C)C)c3)n2n1 [Example 53, N-{4-[2-(4-Fluoro-3-methylphenyl)-6-methoxyimidazo[1,2-b]pyridazin-3-yl]pyridin-2-yl}-N′-isopropylurea] | 233 to 234 °C |
| CSc1ccc2nc(-c3ccc(F)c(C)c3)c(-c3ccnc(NC(=O)NC(C)C)c3)n2n1 [Example 54, N-{4-[2-(4-Fluoro-3-methylphenyl)-6-(methylthio)imidazo[1,2-b]pyridazin-3-yl]pyridin-2-yl}-N′-isopropylurea] | 241 to 242 °C |
| Cc1cc(-c2nc3cccnn3c2-c2ccnc(N3CCCNC3=O)c2)ccc1F [Example 55, 1-{4-[2-(4-Fluoro-3-methylphenyl)imidazo[1,2-b]pyridazin-3-yl]pyridin-2-yl}tetrahydropyrimidine-2-(1H)-one] | 213 to 215 °C |
| Cc1cc(-c2nc3cccnn3c2-c2ccnc(NC(=O)CCS(C)(=O)=O)c2)ccc1F [Example 56, N-{4-[2-(4-Fluoro-3-methylphenyl)imidazo[1,2-b]pyridazin-3-yl]pyridin-2-yl}-3-(methylsulfonyl)propanamide] | 227 to 228 °C |
| Cc1cc(-c2nc3cccnn3c2-c2ccnc(NC(=O)CS(C)(=O)=O)c2)ccc1F [Example 57-1, N-{4-[2-(4-fluoro-3-methylphenyl)imidazo[1,2-b]pyridazin-3-yl]pyridin-2-yl}-2-(methylsulfonyl)acetamide] | 240 to 241 °C |
| Cc1cc(-c2nc3c([S+](C)[O-])cc(Cl)nn3c2-c2ccnc(N)c2)ccc1F (stereo not shown) [Example 57-2, 4-[6-chloro-2-(4-fluoro-3-methylphenyl)-8-(methylsulfinyl)imidazo[1,2-b]pyridazin-3-yl]-2-pyridylamine] | 216 to 217 °C |
| CC(=O)CNC(=O)Nc1cc(-c2c(-c3ccc(F)c(C)c3)nc3cccnn23)ccn1 [Example 63, N-{4-[2-(4-Fluoro-3-methylphenyl)imidazo[1,2-b]pyridazin-3-yl]pyridin-2-yl}-N′-(2-oxopropyl)urea] | 208 to 209 °C |
| Cc1cccc(-c2nc3ccc(Cl)nn3c2-c2ccnc(Nc3ccc(F)cc3C)c2)c1 [Example Compound 3-1, 4-[6-chloro-2-(3-methylphenyl)imidazo[1,2-b]pyridazin-3-yl]-N-(4-fluoro-2-methylphenyl)pyridin-2-amine] | 191 to 192 °C |
| Cc1cccc(-c2nc3ccc(Cl)nn3c2-c2ccnc(Nc3ccccc3C)c2)c1 [Example Compound 3-2, 4-[6-chloro-2-(3-methylphenyl)imidazo[1,2-b]pyridazin-3-yl]-N-(2-methylphenyl)pyridin-2-amine] | 191 to 192 °C |
| Cc1cccc(-c2nc3cccnn3c2-c2ccnc(NC3CCCCC3)c2)c1 [Example Compound 6-1, N-cyclohexyl-4-[2-(3-methylphenyl)imidazo[1,2-b]pyridazin-3-yl]pyridin-2-amine] | 169 to 170 °C |
| Cc1cccc(-c2nc3cccnn3c2-c2ccnc(NC3CCCC3)c2)c1 [Example Compound 6-2, N-cyclopentyl-4-[2-(3-methylphenyl)imidazo[1,2-b]pyridazin-3-yl]pyridin-2-amine] | 130 to 131 °C |
| Cc1cccc(-c2nc3cccnn3c2-c2ccnc(NC3CCC3)c2)c1 [Example Compound 6-3, N-cyclobutyl-4-[2-(3-methylphenyl)imidazo[1,2-b]pyridazin-3-yl]pyridin-2-amine] | 152 to 153 °C |
| Cc1cccc(-c2nc3cccnn3c2-c2ccnc(NC3CC3)c2)c1 [Example Compound 6-4, N-cyclopropyl-4-[2-(3-methylphenyl)imidazo[1,2-b]pyridazin-3-yl]pyridin-2-amine] | 202 to 203 °C |
| Cc1cccc(-c2nc3cccnn3c2-c2ccnc(NCCO)c2)c1 [Example Compound 6-5, 2-({4-[2-(3-methylphenyl)imidazo[1,2-b]pyridazin-3-yl]pyridin-2-yl}amino)ethanol] | 176 to 177 °C |
| COc1ccccc1Nc1cc(-c2c(-c3cccc(C)c3)nc3cccnn23)ccn1 [Example Compound 6-6, N-(2-methoxyphenyl)-4-[2-(3-methylphenyl)imidazo[1,2-b]pyridazin-3-yl]pyridin-2-amine] | 157 to 158 °C |
| Cc1cccc(-c2nc3cccnn3c2-c2ccnc(Nc3cccc(C)c3C)c2)c1 [Example Compound 6-7, N-(2,3-dimethylphenyl)-4-[2-(3-methylphenyl)imidazo[1,2-b]pyridazin-3-yl]pyridin-2-amine] | 187 to 188 °C |
| Cc1ccc(Nc2cc(-c3c(-c4cccc(C)c4)nc4cccnn34)ccn2)cc1 [Example Compound 6-8, N-(4-methylphenyl)-4-[2-(3-methylphenyl)imidazo[1,2-b]pyridazin-3-yl]pyridin-2-amine] | 213 to 214 °C |

| Compound | melting point |
| --- | --- |
| Cc1cccc(Nc2cc(-c3c(-c4cccc(C)c4)nc4cccnn34)ccn2)c1 [Example Compound 6-9, N-(3-methylphenyl)-4-[2-(3-methylphenyl)imidazo[1,2-b]pyridazin-3-yl]pyridin-2-amine] | 195 to 196 °C |
| Cc1cccc(-c2nc3cccnn3c2-c2ccnc(NC3CCCc4ccccc43)c2)c1 (stereo not shown) [Example Compound 6-12, 4-[2-(3-methylphenyl)imidazo[1,2-b]pyridazin-3-yl]-N-(1,2,3,4-tetrahydtonaphthalen-1-yl)pyridin-2-amine] | 195 to 196 °C |
| COCCNc1cc(-c2c(-c3cccc(C)c3)nc3cccnn23)ccn1 [Example Compound 6-13, N-(2-methoxyethyl)-4-[2-(3-methylphenyl)imidazo[1,2-b]pyridazin-3-yl]pyridin-2-amine] | 99 to 100 °C |
| Cc1cccc(-c2nc3cccnn3c2-c2ccnc(NCCN3CCCCC3)c2)c1 [Example Compound 6-14, 4-[2-(3-methylphenyl)imidazo[1,2-b]pyridazin-3-yl]-N-[2-(piperidin-1-yl)ethyl]pyridin-2-amine] | 143 to 144 °C |
| Cc1cccc(-c2nc3cccnn3c2-c2ccnc(NCc3cccs3)c2)c1 [Example Compound 6-15, 4-[2-(3-methylphenyl)imidazo[1,2-b]pyridazin-3-yl]-N-(2-thienylmethyl)pyridin-2-amine] | 185 to 186 °C |
| Cc1cccc(-c2nc3cccnn3c2-c2ccnc(NCC3CCCO3)c2)c1 (stereo not shown) [Example Compound 6-16, 4-[2-(3-methylphenyl)imidazo[1,2-b]pyridazin-3-yl]-N-(tetrahydrofuran-2-ylmethyl)pyridin-2-amine] | 137 to 138 °C |
| Cc1cccc(-c2nc3cccnn3c2-c2ccnc(NCc3ccco3)c2)c1 [Example Compound 6-17, N-(2-furylmethyl)-4-[2-(3-methylphenyl)imidazo[1,2-b]pyridazin-3-yl]pyridin-2-amine] | 150 to 151 °C |
| CCN(CC)CCNc1cc(-c2c(-c3cccc(C)c3)nc3cccnn23)ccn1 [Example Compound 6-19, N,N-diethyl-N′-{4-[2-(3-methylphenyl)imidazo[1,2-b]pyridazin-3-yl]pyridin-2-yl}ethane-1,2-diamine] | 97 to 98 °C |
| Cc1cccc(-c2nc3cccnn3c2-c2ccnc(N[C@@H](C)c3ccccc3)c2)c1 [Example Compound 6-21, 4-[2-(3-methylphenyl)imidazo[1,2-b]pyridazin-3-yl]-N-[(1S)-1-phenylethyl]pyridin-2-amine] | 154 to 155 °C |
| Cc1cccc(-c2nc3cccnn3c2-c2ccnc(N[C@H](C)c3ccccc3)c2)c1 [Example Compound 6-22, 4-[2-(3-methylphenyl)imidazo[1,2-b]pyridazin-3-yl]-N-[(1R)-1-phenylethyl]pyridin-2-amine] | 154 to 155 °C |
| Cc1cccc(-c2nc3cccnn3c2-c2ccnc(NCc3ccccc3)c2)c1 [Example Compound 6-23, N-benzyl-4-[2-(3-methylphenyl)imidazo[1,2-b]pyridazin-3-yl]pyridin-2-amine] | 193 to 194 °C |
| CCCCNc1cc(-c2c(-c3cccc(C)c3)nc3cccnn23)ccn1 [Example Compound 6-24, N-butyl-4-[2-(3-methylphenyl)imidazo[1,2-b]pyridazin-3-yl]pyridin-2-amine] | 128 to 129 °C |
| CCCNc1cc(-c2c(-c3cccc(C)c3)nc3cccnn23)ccn1 [Example Compound 6-25, 4-[2-(3-methylphenyl)imidazo[1,2-b]pyridazin-3-yl]-N-propylpyridin-2-amine] | 128 to 129 °C |
| CCNc1cc(-c2c(-c3cccc(C)c3)nc3cccnn23)ccn1 [Example Compound 6-26, N-ethyl-4-[2-(3-methylphenyl)imidazo[1,2-b]pyridazin-3-yl]pyridin-2-amine] | 151 to 153 °C |
| Nc1cc(-c2c(-c3cccc(Cl)c3)nc3ccc(Cl)nn23)ccn1 [Example Compound 13-1, 4-[6-chloro-2-(3-chlorophenyl)imidazo[1,2-b]pyridazin-3-yl]pyridin-2-amine] | 268 to 269 °C |
| Nc1cc(-c2c(-c3ccc(Cl)cc3)nc3cccnn23)ccn1 [Example Compound 16-2, 4-[2-(4-chlorophenyl)imidazo[1,2-b]pyridazin-3-yl]pyridin-2-amine] | 252 to 253 °C |
| Cc1cccc(-c2nc3cccnn3c2-c2ccnc(NC(=O)c3ccc(Cl)cc3)c2)c1 [Example Compound 20-3, 4-chloro-N-{4-[2-(3-methylphenyl)imidazo[1,2-b]pyridazin-3-yl]pyridin-2-yl}benzamide] | 211 to 212 °C |
| Cc1cccc(-c2nc3cccnn3c2-c2ccnc(NC(=O)c3cccc(F)c3)c2)c1 [Example Compound 20-4, 3-fluoro-N-{4-[2-(3-methylphenyl)imidazo[1,2-b]pyridazin-3-yl]pyridin-2-yl}benzamide] | 204 to 205 °C |
